Results from article PMC4207401, “A Novel Inhibitor of Mammalian Triosephosphate Isomerase Found by an In Silico Approach” (International Journal of Medicinal Chemistry, 2014).
pKi: −log10 of the molar value. Read-outs that look alike come from different tables or passages of the source.

Biological target: T1, triosephosphate isomerase (rabbit muscle TIM) (Oryctolagus cuniculus, UniProt P00939)
T1 construct: gene TPI1; native enzyme from rabbit muscle, commercial reagent (Sigma-Aldrich); homodimer; 1R2R is the rabbit TIM structure used for docking
T1 sequence (P00939 2-249): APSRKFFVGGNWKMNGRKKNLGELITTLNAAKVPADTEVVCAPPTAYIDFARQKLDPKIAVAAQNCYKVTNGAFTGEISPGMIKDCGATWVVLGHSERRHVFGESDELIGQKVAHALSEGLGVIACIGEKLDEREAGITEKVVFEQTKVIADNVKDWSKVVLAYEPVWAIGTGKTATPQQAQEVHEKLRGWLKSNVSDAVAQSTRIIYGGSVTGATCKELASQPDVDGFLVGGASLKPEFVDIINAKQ
Assay: coupled assay with alpha-glycerophosphate dehydrogenase, NADH at […] nm
Type: biochemical

SMILES	pKi (glyceraldehyde-3-phosphate 0.4 mM (= Km), NADH 0.1 mM, pH 8.0, Ki calculated from IC50 by Ki = Kapp/(1 + [S]/Km), read-out: 2)	pKi (read-out: K i)
O=C1C2=C(Nc3[nH]c(=O)[nH]c(=O)c3[C@H]2c2ccccc2)c2ccccc21 [compound 2, Compound 2]	< 3.36	–
Nc1nc2c(c(=O)[nH]1)C(c1ccccc1)C1=C(N2)c2ccccc2C1=O (racemic) [compound 1, 2-amino-5-phenyl-3H-indeno[2′,1′:5,6]pyrido[2,3-d]pyrimidine-4,6(5H,11H)-dione]	–	4.36
